From patent US8993595B2, “Macrocyclic serine protease inhibitors” (priority 2009, dated 2015)

Columns and labels:
1a replicon = test: HCV replicon luciferase assay, genotype 1a; format: cell-based
Experimental: (§1) Compound 52 was tested against genotypes 1a, 1b, and 2a in an HCV replicon assay as described in Example 2. Replicon cells (genotype 1a or 1b) were seeded onto 96-well plates, cultured for three days in the presence of the compound, and subject to a luciferase assay.

[1] = target: T1, HCV NS3-4A Protease Genotype 2a (Hepatitis C virus genotype 2a, UniProt Q99IB8); test: HCV protease assay, recombinant NS3-4A genotype 2a; format: biochemical; conditions: mean ± SD, 3 experiments
T1 construct: recombinant HCV NS3-4A proteases
T1 sequence (Q99IB8 1031-1661): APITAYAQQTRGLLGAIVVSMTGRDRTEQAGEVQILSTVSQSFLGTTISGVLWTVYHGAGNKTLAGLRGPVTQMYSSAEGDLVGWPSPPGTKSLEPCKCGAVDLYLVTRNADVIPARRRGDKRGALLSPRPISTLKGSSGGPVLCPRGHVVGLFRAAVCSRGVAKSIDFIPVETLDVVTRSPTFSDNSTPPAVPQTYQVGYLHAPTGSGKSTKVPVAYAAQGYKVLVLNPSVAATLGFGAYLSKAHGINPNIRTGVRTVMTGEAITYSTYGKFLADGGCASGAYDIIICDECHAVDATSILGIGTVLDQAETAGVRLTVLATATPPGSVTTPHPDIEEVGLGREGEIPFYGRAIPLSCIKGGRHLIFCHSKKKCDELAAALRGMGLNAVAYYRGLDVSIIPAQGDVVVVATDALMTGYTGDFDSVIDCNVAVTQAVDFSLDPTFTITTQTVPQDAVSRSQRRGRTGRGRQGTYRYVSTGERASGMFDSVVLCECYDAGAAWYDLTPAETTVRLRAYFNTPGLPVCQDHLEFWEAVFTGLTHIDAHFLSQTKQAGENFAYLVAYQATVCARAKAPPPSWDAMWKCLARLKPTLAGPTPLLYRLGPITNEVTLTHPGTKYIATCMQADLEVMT
T1 sequence (Q99IB8 1662-1715): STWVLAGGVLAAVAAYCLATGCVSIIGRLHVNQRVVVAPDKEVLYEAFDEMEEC
Experimental: (§2) The compounds were tested at a variety of concentrations in assay buffer containing a final DMSO concentration of 5%. Reactions were allowed to proceed for 60 min at room temperature and fluorescence measurements were recorded with a Tecan Infinity Spectrofluorimeter. The IC50 values were determined from the percent inhibition versus concentration data using a sigmoidal non-linear regression analysis based on four parameters with Tecan Magellan software.
(§3) Compound 52 was tested against genotypes 1a, 1b, 2a, 3a, and 4a of recombinant HCV NS3-4A proteases, along with other cellular proteases.

1b replicon = test: HCV replicon luciferase assay, genotype 1b; format: cell-based
Experimental: as §1
Drug solutions were made up freshly in Huh-7 media as 2× stocks. Ten additional 5-fold dilutions were prepared from these stocks in DMEM without G418. […] Cells were then incubated at 37° C./5% CO2. […] For this, media was removed from the plates via gentle tapping. Fifty microliters of ONE-glo luciferase assay reagent was added to each well. […] The EC50 values were calculated from dose response curves from the resulting best-fit equations determined by Microsoft Excel and XLfit 4.1 software.

[2] = target: T2, HCV NS3-4A Protease Genotype 1b (Hepatitis C virus genotype 1b, UniProt Q9WMX2); test: HCV protease assay, recombinant NS3-4A genotype 1b; format: biochemical; conditions: mean ± SD, 3 experiments
T2 construct: recombinant HCV NS3-4A proteases
T2 sequence (Q9WMX2 1658-1711): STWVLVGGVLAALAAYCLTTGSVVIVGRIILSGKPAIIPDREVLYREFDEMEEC
T2 sequence (Q9WMX2 1027-1657): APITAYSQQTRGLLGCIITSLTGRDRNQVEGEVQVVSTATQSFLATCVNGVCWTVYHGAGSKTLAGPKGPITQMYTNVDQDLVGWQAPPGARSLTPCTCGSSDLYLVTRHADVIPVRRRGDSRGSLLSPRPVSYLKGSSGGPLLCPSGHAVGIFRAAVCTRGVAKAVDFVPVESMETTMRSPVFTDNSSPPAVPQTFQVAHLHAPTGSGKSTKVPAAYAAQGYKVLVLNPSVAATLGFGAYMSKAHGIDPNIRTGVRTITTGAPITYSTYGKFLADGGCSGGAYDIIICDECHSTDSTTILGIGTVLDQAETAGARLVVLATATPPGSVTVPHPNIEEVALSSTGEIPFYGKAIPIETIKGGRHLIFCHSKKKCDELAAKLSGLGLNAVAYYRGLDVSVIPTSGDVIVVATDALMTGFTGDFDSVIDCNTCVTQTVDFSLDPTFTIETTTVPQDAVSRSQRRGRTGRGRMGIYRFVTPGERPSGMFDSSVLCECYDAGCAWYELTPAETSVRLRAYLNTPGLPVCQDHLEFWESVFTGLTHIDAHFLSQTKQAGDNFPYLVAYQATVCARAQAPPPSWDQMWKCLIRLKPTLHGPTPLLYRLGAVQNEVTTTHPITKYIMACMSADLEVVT
Experimental: as §2, §3

HCV NS3-NS4A protease = target: T3, HCV NS3-NS4A protease (Hepatitis C virus genotype 1a, UniProt P27958); test: HCV Protease Assay (SensoLyte 620 HCV Protease Assay kit); format: biochemical; conditions: 1.2 nM HCV NS3-NS4A protease, 60 min, room temperature
T3 construct: HCV NS3-NS4A protease, which was obtained according to Taremi et al; made in house
T3 sequence (P27958 1027-1208): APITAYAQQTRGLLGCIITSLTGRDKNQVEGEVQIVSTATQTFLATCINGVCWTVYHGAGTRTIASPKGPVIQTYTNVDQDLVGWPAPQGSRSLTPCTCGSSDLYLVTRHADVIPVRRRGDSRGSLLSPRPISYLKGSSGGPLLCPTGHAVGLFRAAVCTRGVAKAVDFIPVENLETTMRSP
Experimental: Measurement of the inhibitory effect of compounds on HCV protease activity was performed with the SensoLyte™ 620 HCV Protease Assay kit from AnaSpec, Inc. (San Jose, Calif.) under conditions described by the supplier using 1.2 nM HCV NS3-NS4A protease, which was obtained according to Taremi et al. (Protein Science, 1998, 7, 2143-2149). The compounds were tested at a variety of concentrations in assay buffer containing a final DMSO concentration of 5%. Reactions were allowed to proceed for 60 min at room temperature and fluorescence measurements were recorded with a Tecan Infinity Spectrofluorimeter. The IC50 values were determined from the percent inhibition versus concentration data using a sigmoidal non-linear regression analysis based on four parameters with Tecan Magellan software.

in vitro = format: cell-based; conditions: 48 hrs, intracellular ATP
Experimental: Freshly isolated hepatocytes were incubated with various concentrations of […] for 48 hrs. Intracellular ATP content was measured (CellTiter-Glo luminescent cell viability assay) to determine cell cytotoxicity (CC50).

[3] = human plasma
in vivo = conditions: for Mean concentration, Heart / Mean concentration, Liver / Mean concentration, Plasma / Kp: single 2 mg/kg oral dose; for AUC(0-inf) / C24 h / F / AUC(0-t) / Vd / clearance / half-life / Cmax / Tmax / Kp: 2 mg/kg
Experimental: Male mice (3/time point) and monkeys (3/dose group) were given a single IV or PO dose of compound 52 in a PEG-based vehicle. The compound was quantified in liver (LLOQ=25 ng/g) and heart (LLOQ=50 ng/g) tissue (mice only) and in plasma samples (LLOQ=5 ng/mL) after liquid-liquid extraction by HPLC-MS/MS. Six healthy volunteers were given a single 200 mg dose of the compound using the selected tablet formulation and plasma concentrations were similarly determined (LLOQ=2 ng/mL). PK parameters were calculated using WinNonlin.

[4] = human, in vivo
[5] = Hepatitis C virus, 72 h, three days, luciferase assay

In the case of `COc1ccc2c(O[C@H]3CCN4C(=O)N(C)CCCC/C=C\[C@@H]5C[C@@]5(C(=O)NS(=O)(=O)C5(C)CC5)NC(=O)[C@@H]4C3)cc(-c3nc(C(F)(F)F)cs3)nc2c1C` [Compound 52, 1-methyl-cyclopropanesulfonic acid{(Z)-(1S,4R,6S,18S)-18-[7-methoxy-8-methyl-2-(4-trifluoromethyl-thiazol-2-yl)-quinolin-4-yloxy]-13-methyl-2,14-dioxo-3,13,15-triaza-tricyclo[13.4.0.0*4,6*]nonadec-7-ene-4-carbonyl}amide], the “Selectivity Index” value (1a replicon) is reported as >22,647, the EC50 (1a replicon; [5]) is reported as 3.4 ± 1.1 nM and the IC50 [1] is reported as 1.9 ± 0.5 nM. For the same compound, the “Selectivity Index” value (1b replicon) was 50,400, the EC50 (1b replicon; [5]) was 0.5 ± 0.1 nM and the IC50 [2] was 1.2 ± 0.1 nM. The IC50 (HCV NS3-NS4A protease) was < 1000 nM, the CC50 (in vitro; fresh human hepatocytes) was > 10000 nM and the CC50 (in vitro; fresh monkey hepatocytes) was > 10000 nM. The CC50 (in vitro; fresh mouse hepatocytes) was > 10000 nM, the CC50 (in vitro; fresh rat hepatocytes) was > 10000 nM and the “protein bound in plasma” value [3] was 99.6%. For the same compound, the “Mean concentration, Heart” value (in vivo; 2 hr) was 144 ng/g, the “Mean concentration, Liver” value (in vivo; 2 hr) was 4410 ng/g and the “Mean concentration, Plasma” value (in vivo; 2 hr) was 174 ng/mL. The “Mean concentration, Heart” value (in vivo; 6 hr) was 93.0 ng/g, the “Mean concentration, Liver” value (in vivo; 6 hr) was 3540 ng/g and the “Mean concentration, Plasma” value (in vivo; 6 hr) was 121 ng/mL. The “Mean concentration, Liver” value (in vivo; 24 hr) was 57.6 ng/g, the “Mean concentration, Plasma” value (in vivo; 24 hr) was 1.45 ng/mL and the “Mean concentration, Heart” value (in vivo; 24 hr, BLQ = below 50 ng/g) was “BLQ^2”. For the same compound, the AUC(0-inf) (in vivo; cynomolgus monkey, po) was 8920 ± 2190 ng·h/mL, the C24 h (in vivo; cynomolgus monkey, po) was 81 ± 47 ng/mL and the F (in vivo; cynomolgus monkey, po) was 107 ± 40%. For the same compound, the AUC(0-t) (in vivo; male, CD-1, mouse, in vivo, iv) was 4060 ng·h/mL, the C24 h (in vivo; male, CD-1, mouse, in vivo, iv) was 7.9 ± 11 ng/mL and the Vd (in vivo; male, CD-1, mouse, in vivo, iv) was 4.4 L/kg. For the same compound, the clearance (in vivo; male, CD-1, mouse, in vivo, iv) was 8 mL/min/kg, the half-life (in vivo; male, CD-1, mouse, in vivo, iv) was 6.3 h and the AUC(0-t) (in vivo; male, CD-1, mouse, in vivo, po) was 1410 ng·h/mL. It also gave a C24 h (in vivo; male, CD-1, mouse, in vivo, po) of 1.5 ± 0.3 ng/mL, a Cmax (in vivo; male, CD-1, mouse, in vivo, po) of 174 ng/mL and an F (in vivo; male, CD-1, mouse, in vivo, po) of 34.7%. The Tmax (in vivo; male, CD-1, mouse, in vivo, po) was 2 h, the Kp (in vivo; male, CD-1, mouse, in vivo, po, Mean concentration ratio Heart/Plasma, 2 hr) was 0.79 and the Kp (in vivo; male, CD-1, mouse, in vivo, po, Mean concentration ratio Heart/Plasma, 6 hr) was 0.78. The Kp (in vivo; male, CD-1, mouse, in vivo, po, Mean concentration ratio Liver/Plasma, 2 hr) was 27, the Kp (in vivo; male, CD-1, mouse, in vivo, po, Mean concentration ratio Liver/Plasma, 6 hr) was 30 and the Kp (in vivo; male, CD-1, mouse, in vivo, po, Mean concentration ratio Liver/Plasma, 24 hr) was 39. For the same compound, the AUC(0-inf) (in vivo; male, cynomolgus monkey, iv) was 9580 ± 1420 ng·h/mL, the C24 h (in vivo; male, cynomolgus monkey, iv) was 66 ± 26 ng/mL and the Vd (in vivo; male, cynomolgus monkey, iv) was 3.5 ± 0.5 L/kg. It also gave a clearance (in vivo; male, cynomolgus monkey, iv) of 3.83 mL/min/kg, a half-life (in vivo; male, cynomolgus monkey, iv) of 10.3 ± 1 h and a Cmax (in vivo; male, cynomolgus monkey, po) of 1030 ± 270 ng/mL. For the same compound, the Tmax (in vivo; male, cynomolgus monkey, po) was 1 h, the half-life (in vivo; male, cynomolgus monkey, po) was 7.6 ± 2 h and the “clearance relative to hepatic blood flow” value (in vivo; mouse) was −9 % of hepatic blood flow. The C24 hr [4] was 8 ± 5 ng/mL.
